{"source": "the supplement of paper PMC10307832", "experiment_in_all_cases": "relative viability (nuclei count vs DMSO), 5 days (fraction); higher = more cells survive", "key": {"[1]": {"tested_on": "A549", "outline": "(§1)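 For relative viability, nuclei counts in treated wells were divided by those in vehicle wells. Lung cancer cell lines had been pin-tool dosed in 1536-well plates the day after seeding and cultured for 5 days, then fixed and stained in one step (final 0.05% Triton X-100, 1% formaldehyde, 1 ug/ml Hoechst) and imaged at 4×. Doses were one drug alone or a fixed anchor-drug dose plus five library-drug doses (not always all listed) in √10 steps, and values are duplicate-plate medians.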"}, "[2]": {"tested_on": "SK-MES-1", "outline": "as §1"}, "[3]": {"tested_on": "IA-LM", "outline": "as §1"}, "[4]": {"tested_on": "EBC-1", "outline": "as §1"}, "[5]": {"tested_on": "NCI-H1703", "outline": "as §1"}, "[6]": {"tested_on": "NCI-H1299", "outline": "as §1"}, "[7]": {"tested_on": "NCI-H1651", "outline": "as §1"}, "[8]": {"tested_on": "Calu-6", "outline": "as §1"}, "[9]": {"tested_on": "ChaGo-K-1", "outline": "as §1"}}, "data": [{"smiles": "CC1(C)CCC(c2ccc(Cl)cc2)=C(CN2CCN(c3ccc(C(=O)NS(=O)(=O)c4ccc(N[C@H](CCN5CCOCC5)CSc5ccccc5)c(S(=O)(=O)C(F)(F)F)c4)cc3)CC2)C1", "note": "[Navitoclax] + Cc1nc(NC(=O)N2CCC[C@H]2C(N)=O)sc1-c1ccnc(C(C)(C)C(F)(F)F)c1 [Alpelisib] (partner 2 µM)", "values": [{"measurement": "relative viability", "setting": "[1]; first compound 0.005 µM", "value": 0.774}, {"measurement": "relative viability", "setting": "[1]; first compound 0.01581 µM", "value": 0.932}, {"measurement": "relative viability", "setting": "[1]; first compound 0.05 µM", "value": 0.922}, {"measurement": "relative viability", "setting": "[1]; first compound 0.1581 µM", "value": 0.803}, {"measurement": "relative viability", "setting": "[1]; first compound 0.5 µM", "value": 0.778}, {"measurement": "relative viability", "setting": "[2]; first compound 0.005 µM", "value": 0.761}, {"measurement": "relative viability", "setting": "[2]; first compound 0.01581 µM", "value": 1.01}, {"measurement": "relative viability", "setting": "[2]; first compound 0.05 µM", "value": 0.922}, {"measurement": "relative viability", "setting": "[2]; first compound 0.1581 µM", "value": 0.827}, {"measurement": "relative viability", "setting": "[2]; first compound 0.5 µM", "value": 1.04}, {"measurement": "relative viability", "setting": "[3]; first compound 0.005 µM", "value": 0.69}, {"measurement": "relative viability", "setting": "[3]; first compound 0.01581 µM", "value": 0.986}, {"measurement": "relative viability", "setting": "[3]; first compound 0.05 µM", "value": 0.737}, {"measurement": "relative viability", "setting": "[3]; first compound 0.1581 µM", "value": 0.792}, {"measurement": "relative viability", "setting": "[3]; first compound 0.5 µM", "value": 0.833}, {"measurement": "relative viability", "setting": "[4]; first compound 0.005 µM", "value": 0.781}, {"measurement": "relative viability", "setting": "[4]; first compound 0.01581 µM", "value": 1.13}, {"measurement": "relative viability", "setting": "[4]; first compound 0.05 µM", "value": 0.928}, {"measurement": "relative viability", "setting": "[4]; first compound 0.1581 µM", "value": 0.829}, {"measurement": "relative viability", "setting": "[4]; first compound 0.5 µM", "value": 0.592}, {"measurement": "relative viability", "setting": "[5]; first compound 0.005 µM", "value": 0.308}, {"measurement": "relative viability", "setting": "[5]; first compound 0.01581 µM", "value": 0.406}, {"measurement": "relative viability", "setting": "[5]; first compound 0.05 µM", "value": 0.425}, {"measurement": "relative viability", "setting": "[5]; first compound 0.1581 µM", "value": 0.457}, {"measurement": "relative viability", "setting": "[5]; first compound 0.5 µM", "value": 0.336}, {"measurement": "relative viability", "setting": "[6]; first compound 0.005 µM", "value": 1.01}, {"measurement": "relative viability", "setting": "[6]; first compound 0.01581 µM", "value": 1.09}, {"measurement": "relative viability", "setting": "[6]; first compound 0.05 µM", "value": 1.11}, {"measurement": "relative viability", "setting": "[6]; first compound 0.1581 µM", "value": 1.06}, {"measurement": "relative viability", "setting": "[6]; first compound 0.5 µM", "value": 1.03}, {"measurement": "relative viability", "setting": "[7]; first compound 0.005 µM", "value": 0.929}, {"measurement": "relative viability", "setting": "[7]; first compound 0.01581 µM", "value": 0.899}, {"measurement": "relative viability", "setting": "[7]; first compound 0.1581 µM", "value": 1}, {"measurement": "relative viability", "setting": "[7]; first compound 0.5 µM", "value": 0.946}, {"measurement": "relative viability", "setting": "[8]; first compound 0.005 µM", "value": 0.973}, {"measurement": "relative viability", "setting": "[8]; first compound 0.01581 µM", "value": 1.08}, {"measurement": "relative viability", "setting": "[8]; first compound 0.05 µM", "value": 0.943}, {"measurement": "relative viability", "setting": "[8]; first compound 0.1581 µM", "value": 0.875}, {"measurement": "relative viability", "setting": "[8]; first compound 0.5 µM", "value": 0.938}]}, {"smiles": "O=C(O)c1ccc(-c2c[nH]c3ncc(-c4ccccc4)cc23)cc1C1CCCC1", "note": "+ CC(C)C[C@H](NC(=O)[C@H](Cc1ccccc1)NC(=O)c1cnccn1)B(O)O [Bortezomib] (partner 0.002 µM)", "values": [{"measurement": "relative viability", "setting": "[3]; first compound 0.04 µM", "value": 0.915}, {"measurement": "relative viability", "setting": "[3]; first compound 0.1265 µM", "value": 0.868}, {"measurement": "relative viability", "setting": "[3]; first compound 0.4 µM", "value": 0.761}, {"measurement": "relative viability", "setting": "[3]; first compound 1.265 µM", "value": 0.658}, {"measurement": "relative viability", "setting": "[4]; first compound 0.04 µM", "value": 0.567}, {"measurement": "relative viability", "setting": "[4]; first compound 0.1265 µM", "value": 0.583}, {"measurement": "relative viability", "setting": "[4]; first compound 0.4 µM", "value": 0.452}, {"measurement": "relative viability", "setting": "[4]; first compound 1.265 µM", "value": 0.308}, {"measurement": "relative viability", "setting": "[5]; first compound 0.1265 µM", "value": 0.235}, {"measurement": "relative viability", "setting": "[5]; first compound 0.4 µM", "value": 0.3}, {"measurement": "relative viability", "setting": "[5]; first compound 1.265 µM", "value": 0.433}, {"measurement": "relative viability", "setting": "[9]; first compound 0.04 µM", "value": 1.08}, {"measurement": "relative viability", "setting": "[9]; first compound 0.1265 µM", "value": 1.16}, {"measurement": "relative viability", "setting": "[9]; first compound 0.4 µM", "value": 0.917}, {"measurement": "relative viability", "setting": "[9]; first compound 1.265 µM", "value": 1.21}, {"measurement": "relative viability", "setting": "[6]; first compound 0.04 µM", "value": 1.05}, {"measurement": "relative viability", "setting": "[6]; first compound 0.1265 µM", "value": 1.03}, {"measurement": "relative viability", "setting": "[6]; first compound 0.4 µM", "value": 0.986}, {"measurement": "relative viability", "setting": "[6]; first compound 1.265 µM", "value": 0.893}, {"measurement": "relative viability", "setting": "[7]; first compound 0.04 µM", "value": 0.879}, {"measurement": "relative viability", "setting": "[7]; first compound 0.1265 µM", "value": 0.984}, {"measurement": "relative viability", "setting": "[7]; first compound 0.4 µM", "value": 0.983}, {"measurement": "relative viability", "setting": "[7]; first compound 1.265 µM", "value": 0.855}, {"measurement": "relative viability", "setting": "[8]; first compound 0.04 µM", "value": 0.912}, {"measurement": "relative viability", "setting": "[8]; first compound 0.1265 µM", "value": 1}, {"measurement": "relative viability", "setting": "[8]; first compound 0.4 µM", "value": 0.907}, {"measurement": "relative viability", "setting": "[8]; first compound 1.265 µM", "value": 0.661}]}, {"smiles": "NC(=O)Nc1cc(-c2cccc(F)c2)sc1C(=O)N[C@H]1CCCNC1", "note": "[AZD7762] + CC(C)C[C@H](NC(=O)[C@H](Cc1ccccc1)NC(=O)c1cnccn1)B(O)O [Bortezomib] (partner 0.002 µM)", "values": [{"measurement": "relative viability", "setting": "[3]; first compound 0.01 µM", "value": 1.05}, {"measurement": "relative viability", "setting": "[3]; first compound 0.03162 µM", "value": 0.851}, {"measurement": "relative viability", "setting": "[3]; first compound 0.1 µM", "value": 1.22}, {"measurement": "relative viability", "setting": "[3]; first compound 0.3162 µM", "value": 1.14}, {"measurement": "relative viability", "setting": "[3]; first compound 1 µM", "value": 0.253}, {"measurement": "relative viability", "setting": "[4]; first compound 0.01 µM", "value": 0.633}, {"measurement": "relative viability", "setting": "[4]; first compound 0.03162 µM", "value": 0.508}, {"measurement": "relative viability", "setting": "[4]; first compound 0.1 µM", "value": 0.566}, {"measurement": "relative viability", "setting": "[4]; first compound 0.3162 µM", "value": 0.493}, {"measurement": "relative viability", "setting": "[4]; first compound 1 µM", "value": 0.309}, {"measurement": "relative viability", "setting": "[5]; first compound 0.01 µM", "value": 0.409}, {"measurement": "relative viability", "setting": "[5]; first compound 0.03162 µM", "value": 0.182}, {"measurement": "relative viability", "setting": "[5]; first compound 0.1 µM", "value": 0.167}, {"measurement": "relative viability", "setting": "[5]; first compound 0.3162 µM", "value": 0.176}, {"measurement": "relative viability", "setting": "[5]; first compound 1 µM", "value": 0.124}, {"measurement": "relative viability", "setting": "[9]; first compound 0.01 µM", "value": 0.861}, {"measurement": "relative viability", "setting": "[9]; first compound 0.03162 µM", "value": 1.01}, {"measurement": "relative viability", "setting": "[9]; first compound 0.1 µM", "value": 0.961}, {"measurement": "relative viability", "setting": "[9]; first compound 0.3162 µM", "value": 0.958}, {"measurement": "relative viability", "setting": "[9]; first compound 1 µM", "value": 0.865}, {"measurement": "relative viability", "setting": "[6]; first compound 0.01 µM", "value": 1.07}, {"measurement": "relative viability", "setting": "[6]; first compound 0.03162 µM", "value": 1.04}, {"measurement": "relative viability", "setting": "[6]; first compound 0.1 µM", "value": 1.04}, {"measurement": "relative viability", "setting": "[6]; first compound 0.3162 µM", "value": 1.04}, {"measurement": "relative viability", "setting": "[6]; first compound 1 µM", "value": 0.964}, {"measurement": "relative viability", "setting": "[7]; first compound 0.01 µM", "value": 0.945}, {"measurement": "relative viability", "setting": "[7]; first compound 0.03162 µM", "value": 0.932}, {"measurement": "relative viability", "setting": "[7]; first compound 0.1 µM", "value": 1.01}, {"measurement": "relative viability", "setting": "[7]; first compound 0.3162 µM", "value": 0.963}, {"measurement": "relative viability", "setting": "[7]; first compound 1 µM", "value": 0.686}, {"measurement": "relative viability", "setting": "[8]; first compound 0.01 µM", "value": 1.03}, {"measurement": "relative viability", "setting": "[8]; first compound 0.03162 µM", "value": 0.96}, {"measurement": "relative viability", "setting": "[8]; first compound 0.1 µM", "value": 0.782}, {"measurement": "relative viability", "setting": "[8]; first compound 0.3162 µM", "value": 0.245}, {"measurement": "relative viability", "setting": "[8]; first compound 1 µM", "value": 0.152}]}]}
